Biological target: T1, α-amylase from porcine pancreatic (Sus scrofa, UniProt P00690)
T1 sequence (P00690 16-511): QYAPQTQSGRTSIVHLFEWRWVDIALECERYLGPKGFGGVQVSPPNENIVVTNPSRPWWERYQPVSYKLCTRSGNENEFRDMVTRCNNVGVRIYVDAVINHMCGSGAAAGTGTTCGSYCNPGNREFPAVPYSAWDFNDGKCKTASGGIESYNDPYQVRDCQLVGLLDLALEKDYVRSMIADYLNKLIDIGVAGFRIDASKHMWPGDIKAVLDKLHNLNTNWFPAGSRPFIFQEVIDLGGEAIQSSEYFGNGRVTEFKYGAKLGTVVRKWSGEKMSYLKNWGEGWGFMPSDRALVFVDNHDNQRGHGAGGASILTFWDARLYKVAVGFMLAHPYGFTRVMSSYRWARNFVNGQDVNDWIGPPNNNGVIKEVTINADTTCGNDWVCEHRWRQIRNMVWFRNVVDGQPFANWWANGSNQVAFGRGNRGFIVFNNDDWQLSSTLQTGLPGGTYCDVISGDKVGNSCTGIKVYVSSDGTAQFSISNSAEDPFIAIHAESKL
Assay: In vitro α-amylase inhibition assay
Type: biochemical
Settings: not given

| SMILES | IC50 [µM] |
| --- | --- |
| Cc1ccc([N+](=O)[O-])cc1S(=O)(=O)N/N=C1\C(=O)Nc2ccc([N+](=O)[O-])cc21 [Compound 4] | 13.3 ± 0.3 |
| O=C1Nc2ccc([N+](=O)[O-])cc2/C1=N/NS(=O)(=O)c1ccc([N+](=O)[O-])cc1 [Compound 5] | 13.2 ± 0.2 |
| Cc1ccc([N+](=O)[O-])cc1S(=O)(=O)N/N=C1\C(=O)Nc2ccccc21 [Compound 9] | 13.2 ± 0.3 |
| O=C1Nc2ccccc2/C1=N/NS(=O)(=O)c1ccc([N+](=O)[O-])cc1 [Compound 10] | 13.2 ± 0.2 |
| Cc1ccc([N+](=O)[O-])cc1S(=O)(=O)N/N=C1\C(=O)Nc2ccc(Cl)cc21 [Compound 15, (Z)-N'-(5-chloro-2-oxoindolin-3-ylidene)-2-methyl-5-nitrobenzenesulfonohydrazide] | 14.9 ± 0.2 |

Same assay, conditions: read-out: IC50 ± SEM Alpha-amylase; porcine pancreatic α-amylase, starch

| SMILES | IC50 [µM] |
| --- | --- |
| O=C1Nc2ccc(Cl)cc2/C1=N/NS(=O)(=O)c1ccc([N+](=O)[O-])cc1 [Compound 16, (Z)-N'-(5-chloro-2-oxoindolin-3-ylidene)-4-nitrobenzenesulfonohydrazide] | 12.3 ± 20 |

Reference: PMC10157847 (ACS Omega, 2023)
